Data from patent publication US12459922B2 (Gilead Sciences, Inc., priority 2022, dated 2025).

Legend:
[1] = test system: endogenous cellular STAT1 (phosphorylated at Tyr701) in NCI-H1373 cells; assay: Phospho-STAT1 (Tyr701) LANCE Ultra TR-FRET Detection Assay; type: cell-based; settings: Homo sapiens, NCI-H1373, 48 h, phospho-STAT1 (Tyr701) induction, read-out: NH1373 pSTAT1 EC50
PARP7 = target: T1, PARP7 (Homo sapiens, UniProt Q7Z3E1); assay: Probe Displacement Assay for PARP7 (MSD electrochemiluminescent, biotinylated probe RBNO11147); settings: displacement of biotinylated probe RBNO11147 from PARP7 NAD+-binding site; read-out: MSD ProbeDisp PARP7 IC50
T1 sequence (Q7Z3E1 1-657): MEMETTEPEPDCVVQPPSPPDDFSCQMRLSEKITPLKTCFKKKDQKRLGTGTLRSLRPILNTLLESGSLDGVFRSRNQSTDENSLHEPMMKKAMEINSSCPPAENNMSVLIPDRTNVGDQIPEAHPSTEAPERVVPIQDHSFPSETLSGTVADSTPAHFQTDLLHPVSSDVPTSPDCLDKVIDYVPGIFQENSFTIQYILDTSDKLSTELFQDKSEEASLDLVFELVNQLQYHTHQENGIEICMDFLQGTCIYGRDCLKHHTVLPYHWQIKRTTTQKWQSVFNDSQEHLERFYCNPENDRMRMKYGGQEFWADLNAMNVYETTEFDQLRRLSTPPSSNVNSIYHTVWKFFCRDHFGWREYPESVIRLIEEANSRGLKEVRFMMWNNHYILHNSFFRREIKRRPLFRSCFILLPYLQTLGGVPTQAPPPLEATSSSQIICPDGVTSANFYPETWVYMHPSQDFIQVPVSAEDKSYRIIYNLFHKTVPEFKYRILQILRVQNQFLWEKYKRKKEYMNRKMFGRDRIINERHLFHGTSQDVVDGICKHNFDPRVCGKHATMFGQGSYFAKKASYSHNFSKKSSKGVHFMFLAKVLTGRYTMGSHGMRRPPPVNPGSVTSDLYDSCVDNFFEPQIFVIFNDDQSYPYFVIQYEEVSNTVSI

With `C[C@@H](CCCn1ccc2cc(-c3ccc(C(F)(F)F)cn3)ncc2c1=O)Nc1cn[nH]c(=O)c1C(F)(F)F` [Example 13, 2-[(4S)-4-[[6-oxo-5-(trifluoromethyl)-1H-pyridazin-4-yl]amino]pentyl]-6-[5 (trifluoromethyl)-2-pyridyl]-2,7-naphthyridin-1-one] as the compound, how does the EC50 [1] read?
The EC50 was 10000 nM.

What about the IC50 (PARP7) of the same compound?
Its IC50 is 3.7 nM.

Which EC50 [1] does the source give for `C[C@@H](CCCn1ccc2cc(-c3ncc(C(F)(F)F)cn3)ccc2c1=O)Nc1cn[nH]c(=O)c1C(F)(F)F` [Example 5, 2-[(4S)-4-[[6-oxo-5-(trifluoromethyl)-1H-pyridazin-4-yl]amino]pentyl]-6-[5-(trifluoromethyl)pyrimidin-2-yl]isoquinolin-1-one] here?
Its EC50 is 143 nM.

And the IC50 (PARP7)?
Its IC50 is 0.3 nM.

`C[C@@H](CCCn1ccc2cc(-c3ccc4c(c3)OCCO4)c(F)cc2c1=O)Nc1cn[nH]c(=O)c1C(F)(F)F` [Example 28, (S)-6-(2,3-dihydrobenzo[b][1,4]dioxin-6-yl)-7-fluoro-2-(4-((6-oxo-5-(trifluoromethyl)-1,6-dihydropyridazin-4-yl)amino)pentyl)isoquinolin-1(2H)-one] was tested. Which EC50 [1] did it give?
The EC50 was 2180 nM.

And the IC50 (PARP7)?
The IC50 was greater than 33 nM.

For `C[C@@H](CCCn1ccc2cc(-c3ncc(C(F)(F)F)s3)c(F)cc2c1=O)Nc1cn[nH]c(=O)c1C(F)(F)F` [Example 309, (S)-7-fluoro-2-(4-((6-oxo-5-(trifluoromethyl)-1,6-dihydropyridazin-4-yl)amino)pentyl)-6-(5-(trifluoromethyl)thiazol-2-yl)isoquinolin-1(2H)-one], which EC50 [1] is on record?
The EC50 was 149 nM.

And the IC50 (PARP7)?
Its IC50 is 0.258 nM.

Which results are given for `C[C@@H](CCCn1ccc2cc(-c3ncc(C(F)F)cn3)c(F)cc2c1=O)Nc1cn[nH]c(=O)c1C(F)(F)F` [Example 76, 6-[5-(difluoromethyl)pyrimidin-2-yl]-7-fluoro-2-[(4S)-4-[[6-oxo-5-(trifluoromethyl)-1H-pyridazin-4-yl]amino]pentyl]isoquinolin-1-one]?
EC50 [1]: 21.3 nM; IC50 (PARP7): 0.41 nM

How did the EC50 [1] turn out when `Nc1nc(-c2cc3ccn(CCC[C@H](COC(F)F)Nc4cn[nH]c(=O)c4C(F)(F)F)c(=O)c3cc2F)ncc1C(F)F` [Example 376, (R)-6-(4-amino-5-(difluoromethyl)pyrimidin-2-yl)-2-(5-(difluoromethoxy)-4-((6-oxo-5-(trifluoromethyl)-1,6-dihydropyridazin-4-yl)amino)pentyl)-7-fluoroisoquinolin-1(2H)-one] was run?
Its EC50 is 3.03 nM.

What about the IC50 (PARP7) of the same compound?
The IC50 was 0.339 nM.

What does the source list for `C[C@@H](CCCn1ccc2cc(-c3ncc(CN)cn3)c(F)cc2c1=O)Nc1cn[nH]c(=O)c1C(F)(F)F` [Example 302, (S)-6-(5-(aminomethyl)pyrimidin-2-yl)-7-fluoro-2-(4-((6-oxo-5-(trifluoromethyl)-1,6-dihydropyridazin-4-yl)amino)pentyl)isoquinolin-1(2H)-one]?
EC50 [1]: 108 nM; IC50 (PARP7): 2.06 nM

`C[C@@H](CCCn1ccc2cc(-c3ccc(OC(F)(F)F)cn3)c(F)cc2c1=O)Nc1cn[nH]c(=O)c1C(F)(F)F` [Example 32, 7-fluoro-2-[(4S)-4-[[6-oxo-5-(trifluoromethyl)-1H-pyridazin-4-yl]amino]pentyl]-6-[5-(trifluoromethoxy)-2-pyridyl]isoquinolin-1-one] was tested. Which EC50 [1] did it give?
Its EC50 is 187 nM.

And the IC50 (PARP7)?
The IC50 was 2.6 nM.

With `C[C@@H](CCCn1cnc2cc(-c3ccc(C(F)(F)F)cn3)c(F)cc2c1=O)Nc1cn[nH]c(=O)c1C(F)(F)F` [Example 58, (S)-6-fluoro-3-(4-((6-oxo-5-(trifluoromethyl)-1,6-dihydropyridazin-4-yl)amino)pentyl)-7-(5-(trifluoromethyl)pyridin-2-yl)quinazolin-4(3H)-one] as the compound, how does the EC50 [1] read?
Its EC50 is 124 nM.

And the IC50 (PARP7)?
Its IC50 is 0.484 nM.

With `C[C@@H](CCCn1ccc2cc(-c3ccc(C#N)cn3)cc(F)c2c1=O)Nc1cn[nH]c(=O)c1C(F)(F)F` [Example 18, (S)-6-(8-fluoro-1-oxo-2-(4-((6-oxo-5-(trifluoromethyl)-1,6-dihydropyridazin-4-yl)amino)pentyl)-1,2-dihydroisoquinolin-6-yl)nicotinonitrile] as the compound, how does the EC50 [1] read?
Its EC50 is 164 nM.

What about the IC50 (PARP7) of the same compound?
Its IC50 is 0.4 nM.

What does the source list for `O=c1[nH]ncc(N[C@H](CCCn2ccc3cc(-c4ncc(C(F)(F)F)cn4)c(F)cc3c2=O)C2CC2)c1C(F)(F)F` [Example 36, 2-[(4R)-4-cyclopropyl-4-[[6-oxo-5-(trifluoromethyl)-1H-pyridazin-4-yl]amino]butyl]-7-fluoro-6-[5-(trifluoromethyl)pyrimidin-2-yl]isoquinolin-1-one]?
EC50 [1]: 74.1 nM; IC50 (PARP7): 0.7 nM

With `C[C@@H](CCCn1ccc2cc(-c3ncc(C(F)(F)F)cn3)c(F)c(F)c2c1=O)Nc1cn[nH]c(=O)c1C(F)(F)F` [Example 20] as the compound, how does the EC50 [1] read?
Its EC50 is 14.6 nM.

And the IC50 (PARP7)?
Its IC50 is 0.3 nM.

With `C[C@@H](CCCn1ccc2cc(-c3cc4ccccn4n3)c(F)cc2c1=O)Nc1cn[nH]c(=O)c1C(F)(F)F` [Example 304, (S)-7-fluoro-2-(4-((6-oxo-5-(trifluoromethyl)-1,6-dihydropyridazin-4-yl)amino)pentyl)-6-(pyrazolo[1,5-a]pyridin-2-yl)isoquinolin-1(2H)-one] as the compound, how does the EC50 [1] read?
Its EC50 is 25.6 nM.

And the IC50 (PARP7)?
Its IC50 is 0.199 nM.

How did the EC50 [1] turn out when `Cc1cc2cc(-c3ncc(C(F)(F)F)cn3)ccc2c(=O)n1CCC[C@H](C)Nc1cn[nH]c(=O)c1C(F)(F)F` [Example 45, 3-methyl-2-[(4S)-4-[[6-oxo-5-(trifluoromethyl)-1H-pyridazin-4-yl]amino]pentyl]-6-[5-(trifluoromethyl)pyrimidin-2-yl]isoquinolin-1-one] was run?
Its EC50 is 617 nM.

What about the IC50 (PARP7) of the same compound?
The IC50 was 1.19 nM.

Which results are given for `Cc1cc(NC2CC2)nc(-c2cc3ccn(CCC[C@H](C)Nc4cn[nH]c(=O)c4C(F)(F)F)c(=O)c3cc2F)n1` [Example 310, (S)-6-(4-(cyclopropylamino)-6-methylpyrimidin-2-yl)-7-fluoro-2-(4-((6-oxo-5-(trifluoromethyl)-1,6-dihydropyridazin-4-yl)amino)pentyl)isoquinolin-1(2H)-one]?
EC50 [1]: 910 nM; IC50 (PARP7): 1.3 nM

What does the source list for `C[C@@H](CCCn1ccc2cc(-c3ccc(F)cn3)c(F)cc2c1=O)Nc1cn[nH]c(=O)c1C(F)(F)F` [Example 35, 7-fluoro-6-(5-fluoro-2-pyridyl)-2-[(4S)-4-[[6-oxo-5-(trifluoromethyl)-1H-pyridazin-4-yl]amino]pentyl]isoquinolin-1-one]?
EC50 [1]: 436 nM; IC50 (PARP7): 0.5 nM

With `C[C@@H](CCCn1ccc2cc(-c3ccc(C(F)F)cn3)c(F)cc2c1=O)Nc1cn[nH]c(=O)c1C(F)(F)F` [Example 33, 6-[5-(difluoromethyl)-2-pyridyl]-7-fluoro-2-[(4S)-4-[[6-oxo-5-(trifluoromethyl)-1H-pyridazin-4-yl]amino]pentyl]isoquinolin-1-one] as the compound, how does the EC50 [1] read?
The EC50 was 168 nM.

And the IC50 (PARP7)?
The IC50 was 0.5 nM.

For `C[C@@H](CCCn1ccc2cc(-c3ccc(S(C)(=N)=O)cn3)cc(F)c2c1=O)Nc1cn[nH]c(=O)c1C(F)(F)F` (stereo partly drawn) [Example 40, 8-fluoro-6-[5-(methylsulfonimidoyl)-2-pyridyl]-2-[(4S)-4-[[6-oxo-5-(trifluoromethyl)-1H-pyridazin-4-yl]amino]pentyl]isoquinolin-1-one], which EC50 [1] is on record?
The EC50 was 10000 nM.

What about the IC50 (PARP7) of the same compound?
The IC50 was 2.7 nM.

Which EC50 [1] does the source give for `C[C@@H](CCCn1ccc2cc(-c3nc4ccccn4n3)c(F)cc2c1=O)Nc1cn[nH]c(=O)c1C(F)(F)F` [Example 306, (S)-6-([1,2,4]triazolo[1,5-a]pyridin-2-yl)-7-fluoro-2-(4-((6-oxo-5-(trifluoromethyl)-1,6-dihydropyridazin-4-yl)amino)pentyl)isoquinolin-1(2H)-one] here?
Its EC50 is 2.18 nM.

What about the IC50 (PARP7) of the same compound?
The IC50 was 0.21 nM.
